Earlier results in article PMC4492579, “Potent and Selective Triazole-Based Inhibitors of the Hypoxia-Inducible Factor Prolyl-Hydroxylases with Activity in the Murine Brain” (PLoS ONE, 2015).

Tests used:
JMJD1A (KDM3A) = molecular target: T1, JMJD1A (KDM3A) (Homo sapiens, UniProt Q9Y4C1); set-up: method as in PMID 26682036; conditions: cited from earlier work
T1 sequence (Q9Y4C1 1-1321): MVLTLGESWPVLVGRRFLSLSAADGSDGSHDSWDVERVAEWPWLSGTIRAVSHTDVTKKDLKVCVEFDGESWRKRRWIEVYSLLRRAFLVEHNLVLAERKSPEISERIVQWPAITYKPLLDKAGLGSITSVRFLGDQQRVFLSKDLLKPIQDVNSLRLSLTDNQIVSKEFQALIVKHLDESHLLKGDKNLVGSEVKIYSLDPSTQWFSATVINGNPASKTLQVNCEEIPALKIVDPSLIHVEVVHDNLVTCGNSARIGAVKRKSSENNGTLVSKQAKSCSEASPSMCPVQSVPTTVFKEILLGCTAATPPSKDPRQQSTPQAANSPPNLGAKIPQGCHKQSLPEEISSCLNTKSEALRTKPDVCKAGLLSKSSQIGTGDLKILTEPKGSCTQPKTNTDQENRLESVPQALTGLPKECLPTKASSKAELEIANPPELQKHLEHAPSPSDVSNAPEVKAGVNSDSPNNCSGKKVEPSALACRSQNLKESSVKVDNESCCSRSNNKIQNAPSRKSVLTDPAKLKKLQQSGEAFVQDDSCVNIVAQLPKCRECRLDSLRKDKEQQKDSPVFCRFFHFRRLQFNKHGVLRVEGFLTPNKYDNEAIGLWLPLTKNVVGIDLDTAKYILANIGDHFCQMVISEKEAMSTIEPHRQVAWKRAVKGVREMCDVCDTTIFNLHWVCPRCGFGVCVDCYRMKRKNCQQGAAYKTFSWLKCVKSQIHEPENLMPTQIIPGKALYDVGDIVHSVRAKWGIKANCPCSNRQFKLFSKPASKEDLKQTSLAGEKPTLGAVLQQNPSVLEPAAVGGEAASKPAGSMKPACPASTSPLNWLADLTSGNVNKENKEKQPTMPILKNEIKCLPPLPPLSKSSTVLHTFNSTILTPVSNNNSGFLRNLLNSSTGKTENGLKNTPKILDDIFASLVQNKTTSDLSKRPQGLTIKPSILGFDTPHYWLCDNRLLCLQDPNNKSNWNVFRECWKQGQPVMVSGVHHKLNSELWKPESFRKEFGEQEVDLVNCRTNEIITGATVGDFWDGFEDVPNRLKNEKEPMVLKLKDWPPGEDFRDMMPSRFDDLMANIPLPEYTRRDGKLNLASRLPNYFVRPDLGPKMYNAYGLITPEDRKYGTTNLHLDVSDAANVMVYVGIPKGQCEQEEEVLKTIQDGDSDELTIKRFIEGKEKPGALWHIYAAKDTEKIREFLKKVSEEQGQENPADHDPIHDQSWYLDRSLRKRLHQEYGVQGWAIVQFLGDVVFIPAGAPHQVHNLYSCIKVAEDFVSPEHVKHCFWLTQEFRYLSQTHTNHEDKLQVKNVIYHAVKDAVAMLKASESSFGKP

FBXL11 (KDM2A) = molecular target: T2, FBXL11 (KDM2A) (Homo sapiens, UniProt Q9Y2K7); set-up: method as in PMID 26682036; conditions: cited from earlier work
T2 sequence (Q9Y2K7 1-1162): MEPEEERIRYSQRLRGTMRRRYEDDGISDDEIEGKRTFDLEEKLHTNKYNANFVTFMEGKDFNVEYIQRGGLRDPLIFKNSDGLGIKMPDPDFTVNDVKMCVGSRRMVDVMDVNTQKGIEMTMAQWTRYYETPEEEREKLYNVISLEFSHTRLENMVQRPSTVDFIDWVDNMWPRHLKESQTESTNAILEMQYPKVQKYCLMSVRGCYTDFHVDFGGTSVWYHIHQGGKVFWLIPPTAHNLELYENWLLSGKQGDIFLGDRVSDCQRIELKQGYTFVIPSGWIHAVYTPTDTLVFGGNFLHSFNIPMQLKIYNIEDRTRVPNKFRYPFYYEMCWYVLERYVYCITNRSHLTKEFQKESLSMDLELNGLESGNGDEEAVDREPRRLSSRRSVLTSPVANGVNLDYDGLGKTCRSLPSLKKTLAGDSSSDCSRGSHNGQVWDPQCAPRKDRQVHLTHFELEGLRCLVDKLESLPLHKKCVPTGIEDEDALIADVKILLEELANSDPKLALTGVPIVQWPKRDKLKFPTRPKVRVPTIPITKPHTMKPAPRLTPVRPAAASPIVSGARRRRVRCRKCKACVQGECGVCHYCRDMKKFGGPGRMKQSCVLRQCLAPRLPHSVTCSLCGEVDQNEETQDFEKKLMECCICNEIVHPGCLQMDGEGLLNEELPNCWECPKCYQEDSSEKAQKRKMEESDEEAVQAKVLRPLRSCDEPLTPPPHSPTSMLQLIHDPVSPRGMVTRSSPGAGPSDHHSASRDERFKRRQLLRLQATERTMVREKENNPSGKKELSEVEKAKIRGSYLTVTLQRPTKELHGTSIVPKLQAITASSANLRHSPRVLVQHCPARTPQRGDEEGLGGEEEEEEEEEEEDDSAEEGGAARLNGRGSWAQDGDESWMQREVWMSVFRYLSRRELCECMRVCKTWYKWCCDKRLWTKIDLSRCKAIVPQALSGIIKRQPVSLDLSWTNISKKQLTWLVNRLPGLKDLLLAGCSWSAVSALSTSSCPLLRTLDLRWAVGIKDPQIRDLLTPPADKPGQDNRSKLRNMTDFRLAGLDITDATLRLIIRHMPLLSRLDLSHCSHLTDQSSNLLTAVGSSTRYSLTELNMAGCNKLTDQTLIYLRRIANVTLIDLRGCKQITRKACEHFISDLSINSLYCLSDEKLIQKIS

For `O=C(O)CNC(=O)c1c(O)c2ccccc2n(Cc2ccccc2)c1=O` [IOX2], the IC50 (JMJD1A (KDM3A)) is listed as over 100 µM and the IC50 (FBXL11 (KDM2A)) is listed as 52 µM.
